This is an account of results in patent US9303249B2, “High concentration α-glucosidase compositions for the treatment of Pompe disease” (Amicus Therapeutics, Inc., priority 2012, dated 2016).

Counter-ions that a name gives are not always drawn.

In series [1] the target is T1, GAA (Homo sapiens, UniProt P10253). Kind of series: rhGAA enzyme inactivation in whole blood at 37° C. Type of series: in vitro ADME. Set-up: purchased Genzyme Corp; host or cells: Chinese hamster ovary cell line. The following applies: for enzyme inactivated: whole blood 37° C., no 1-DNJ-HCl. The protocol: Aliquots were collected at 0, 2, 4, 8 and 24 hrs and centrifuged to obtain plasma. These plasma samples were then diluted in potassium acetate buffer (pH 4.0) and assayed for GAA activity using the 4-methylumbeliferyl-α-glucose (4-MUG) fluorogenic substrate. The measured GAA activity for individual samples at each time point was normalized to the 0 hr and expressed as % of initial activity. Data from 4 independent experiments were analyzed to obtain the mean (and standard deviation) and plotted versus time to assess the loss of enzyme activity over this time course.
Aliquots were collected at 0, 3 and 6 hrs and centrifuged to obtain plasma. These plasma samples were then diluted in potassium acetate buffer (pH 4.0) and assayed for GAA activity using the 4-methylumbeliferyl-α-glucose (4-MUG) fluorogenic substrate. The measured GAA activity for individual samples at each time point was normalized to the 0 hr and expressed as % of initial activity.
Moreover, since Myozyme® has a long plasma half-life (reported to be more than 3 hrs), there is a high probability that an appreciable amount of the enzyme remains in the circulation many hours after the infusion that would also be prone to inactivation.
Based on human plasma PK data, these concentrations are readily obtainable in the clinic.

Series [2] has as its target T2, recombinant human GAA (Myozyme®) (Homo sapiens, UniProt P10253).
T2 construct: purchased Genzyme Corp; host or cells: Chinese hamster ovary cell line
Briefly: SYPRO Orange thermal stability assay. The format is binding. The procedure: The thermal stability assay utilizes heat to induce protein denaturation, which is monitored using a SYPRO Orange dye that fluoresces upon binding to hydrophobic amino acids (which are not exposed in a folded protein).
Denaturation is monitored using a SYPRO Orange dye that fluoresces upon binding to hydrophobic amino acids (which are not exposed in a folded protein).
The thermal stability was performed at pH 7.4 for two formulations, which corresponds to the pH of the ER.

Series [3] deals with T1, GAA. Kind of series: GAA levels in cell lines derived from late-onset Pompe patients. Set-up: endogenous in cells. Type of series: cell-based. The following applies: cell lines with IVS 1 (−13 T>G) splicing mutation.
Series [4] in a line: Aggregation of 25 mg/mL Myozyme® at pH 7.4 and 37° C. (Example 10). Type of series: physicochemical. The following applies: 1 mM DNJ, PBS pH 7.4, 4 weeks at 37° C. The procedure: Aggregation was assessed after a 4 week incubation period.
A liquid formulation comprising DNJ and GAA was prepared by dissolving DNJ in water to achieve a concentration of 10 mM DNJ. GAA was reconstituted in 1.8 ml water, and dialyzed overnight in phosphate buffered-saline (pH 7.4). […] of DNJ (10 mM) was then be added to 400 microliters of GAA, such that the GAA was at a concentration of 25 mg/ml.
25 mg/mL Myozyme® was incubated with or without 1 mM DNJ in phosphate-buffered saline at pH 7.4. Aggregation of Myozyme® was assessed after incubation for 4 weeks at 37° C.

Series [5] is described as follows: Circulating rhGAA after subcutaneous DNJ co-formulated with Myozyme® (FIG. 14). Type of series: in vivo. The following applies: DNJ co-formulated with 20 mg/kg Myozyme® vs Myozyme® without DNJ.
For series [6] the following is noted: rat, iv. The procedure: Four groups of rats were administered one of the following dosing regimens:
(2) 10 mg/kg of rhGAA+Water;

In series [7] the test system is GAA KO mice. Kind of series: Tissue glycogen reduction in GAA KO mice, Myozyme® IV with or without oral 1-DNJ-HCl (Example 9). The format is in vivo, mouse. The procedure: Twelve-week old male GAA KO mice were administered a single dose of Myozyme® (40 mg/kg) via bolus tail vein injection every other week for 8 weeks. To prevent anaphylaxis, before the third and fourth Myozyme® injection, diphenhydramine (10 mg/kg intraperitoneally) was administered 10 min before Myozyme® injection. […] Mice were euthanized 14 days after the last Myozyme® administration.
Glycogen levels in heart, diaphragm, soleus, and quadriceps were then measured. […] Briefly, homogenates were prepared by homogenizing ˜50 mg tissue for 3-5 seconds on ice with a microhomogenizer in 200 μL deionized water. Supernatants were heat denatured (99° C. for 10 min) to remove endogenous amyloglucosidase activity. Denatured lysates (4 μL) were then analyzed in duplicate by addition of 36 μL water with and without 10 μL of 800 U/mL of amyloglucosidase (Sigma Aldrich, St. Louis, Mo.) and incubated for 1 hour at 50° C. The reaction was stopped by inactivation at 100° C. for 10 min. Finally, 200 μL of glucose reagent (Sigma) was added absorbance read at 340 nm on Spectramax. A standard curve ranging from 5 μg/mL to 400 μg/mL Type III rabbit liver glycogen (Sigma) was run each day for conversion of absorbance to absolute glycogen units. Simultaneously, the amount of protein was determined in tissue homogenates using the Micro BCA Protein Assay (Pierce, Rockford, Ill.) following the manufacturer's instructions. The glycogen content of each sample was normalized to protein, and data were finally expressed as micrograms of glycogen per milligram of protein (μg/mg protein).

For series [8], the system named is GAA KO mice. Briefly: Tissue rhGAA activity after repeat IV Myozyme® in GAA KO mice. The format is in vivo, mouse. The following applies: 20 mg/kg IV bolus, 4 doses at 2 week intervals, 3 days after last dose. The source says:
(§1) Mice were euthanized 3 days after the last administration for tissue GAA activity measurement and 14 days after the administration for glycogen measurement. Data was compared with uptake (on day 3) and glycogen reduction (on day 14) of historical Lumizyme® IV alone study. Tissue samples included heart, diaphragm, tongue, ventral skin (non-injection site), skin from the hind limb injection site, skin from the shoulder SQ injection site, left and right limb muscles (biceps, triceps, quadriceps, soleus and gastrocnemius). GAA activities in tissues were determined using a 4-MUG fluorogenic substrate assay. Glycogen levels were determined using a glycogen assay (see Example 9 for method).
For both studies, the enzyme activities in tissues were assessed three days after the last (fourth) administration.

In series [9] the test system is GAA KO mice. Briefly: Tissue glycogen reduction after repeat IV Myozyme® in GAA KO mice. Type of series: in vivo, mouse. The following applies: 20 mg/kg IV bolus, 4 administrations at two-week intervals, 14 days after last.
Source text: as §1

Turning to `OC[C@H]1NC[C@H](O)[C@@H](O)[C@@H]1O` [1-DNJ-HCl, 1-deoxynojirimycin hydrochloride], the “loss of rhGAA activity” value on GAA [1] (2.5 μM 1-DNJ-HCl, whole blood, 6-hr time course) is roughly 20%. For the same compound, the “rhGAA activity in whole blood” value on GAA [1] (50 μM 1-DNJ-HCl, 37° C., up to 24 hrs) is on record as “remained completely active throughout the study”. Besides, the “thermal stability of rhGAA (heat to denature)” value in [2] (100 μM 1-DNJ-HCl, pH 7.4, vs formulation without ASSC) is listed as “required significantly more heat to denature”. Further, the “GAA thermostability (melting temperature)” value in series [2] (Myozyme® plus 1, 10, 100 μM 1-DNJ-HCl) is “increases GAA thermostability”. Further, at GAA [3], the GAA levels entry is “increased GAA levels alone and in combination with hrGAA”.

Consider `OC[C@H]1NC[C@H](O)[C@@H](O)[C@@H]1O` [DNJ, 1-deoxynojirimycin], for which, in series [4], the “aggregation of Myozyme®” value is on record as “reduced aggregation of Myozyme®”. In addition, the “circulating levels of rhGAA” value in series [5] was “increased the circulating levels of rhGAA”.

For the compound “rhGAA: recombinant human acid α-glucosidase (e.g., Myozyme®)”, the values for the enzyme inactivated result with GAA [1] (by 4 hrs), in the series with GAA [1] (by 8 hrs) and with GAA [1] (by 24 hrs) were “approximately 40%”, roughly 70% and roughly 100%, respectively. Besides, the “in vivo half life of rhGAA” value in series [6] was 1.4 ± 0.2 h.

Regarding “Myozyme®: alglucosidase alfa, recombinant human acid α-glucosidase from Genzyme Corporation”, the “Glycogen reduction relative to untreated mice” value in the series on GAA KO mice [7] (diaphragm, same regimen) is recorded as 41±4%; in the series with GAA KO mice [7] (heart, Myozyme® 40 mg/kg IV every other week for 8 weeks, +/- 30 mg/kg oral 1-DNJ-HCl), 93±1%; in the series with GAA KO mice [7] (quadriceps, same regimen) it was 18±4%; with GAA KO mice [7] (soleus, same regimen) it was 69±3%. Moreover, the rhGAA activity uptake worked out at 10.1 nmol/mg/h with GAA KO mice [8] (Biceps); 7.1 nmol/mg/h in the series on GAA KO mice [8] (Diaphragm); 17.9 nmol/mg/h in the series with GAA KO mice [8] (Gastrocnemius); 1.8 nmol/mg/h with GAA KO mice [8] (Heart); 6.9 nmol/mg/h with GAA KO mice [8] (Quadriceps); 27.1 nmol/mg/h with GAA KO mice [8] (Skin). Moreover, the rhGAA activity uptake in the series on GAA KO mice [8] (Soleus, 20 mg/kg) turned out to be 8.0 nmol/mg/h; with GAA KO mice [8] (Soleus, listed as rhGAA (Myozyme), 20 mg/kg), 8 nmol/mg/h; with GAA KO mice [8] (Tongue), 12.4 nmol/mg/h; in the series with GAA KO mice [8] (Triceps) it was 3.9 nmol/mg/h. Besides, the “Glycogen reduction (% of untreated)” value was 5% with GAA KO mice [9] (Biceps); 19% in the series on GAA KO mice [9] (Diaphragm); 15% in the series on GAA KO mice [9] (Gastrocnemius); 51% with GAA KO mice [9] (Heart); 8% in the series on GAA KO mice [9] (Quadriceps); “No reduction” in the series with GAA KO mice [9] (Skin, 20 mg/kg). The “Glycogen reduction (% of untreated)” value in the series with GAA KO mice [9] (Skin, listed as rhGAA (Myozyme), 20 mg/kg) is recorded as “No”; with GAA KO mice [9] (Tongue), 54%; in the series on GAA KO mice [9] (Triceps) it was 4%.
